Assay results reported in ChEMBL document CHEMBL3832761, “MMV Pathogen Box Bioactivity Data” (2017).
In brackets after ≈: the same amount, converted by molar mass.

How the values were obtained:
Type in all cases: functional
[1] = test system: Mycobacterium tuberculosis; assay: AntiMycobacterium tuberculosis activity Replicating form: Average MIC90 (uM)
[2] = test system: Mycobacterium tuberculosis; assay: AntiMycobacterium tuberculosis activity 2-week Alamar Blue 7H9/cholesterol/BSA/Tx MIC (uM); conditions: 336 h
[3] = test system: Mycobacterium tuberculosis; assay: AntiMycobacterium tuberculosis activity 1-week GAST/Fe MIC (uM); conditions: 168 h
[4] = test system: Mycobacterium tuberculosis; assay: AntiMycobacterium tuberculosis activity 1-week 7H9/DPPC/cholesterol/BSA/Tx MIC (uM); conditions: 168 h
[5] = test system: Mycobacterium tuberculosis; assay: AntiMycobacterium tuberculosis activity 2-week 7H9/DPPC/cholesterol/BSA/Tx MIC (uM); conditions: 336 h
[6] = test system: Mycobacterium tuberculosis; assay: AntiMycobacterium tuberculosis activity Non-Replicating form: Average MIC90 (uM)
[7] = test system: Mycobacterium tuberculosis; assay: AntiMycobacterium tuberculosis activity day 21 MIC99 in 7H9/2.5mM butyrate/pH6/0.1mM nitrite MIC99 (uM); conditions: 504 h
[8] = test system: Mycobacterium tuberculosis; assay: AntiMycobacterium tuberculosis activity 1-week 7H9/glucose/BSA/Tx MIC (uM); conditions: 168 h
[9] = test system: Mycobacterium tuberculosis; assay: AntiMycobacterium tuberculosis activity 2-week 7H9/glucose/BSA/Tx MIC (uM); conditions: 336 h
[10] = test system: Mycobacterium tuberculosis; assay: AntiMycobacterium tuberculosis activity 2-week Alamar Blue 7H9/ADC/Tw MIC (uM); conditions: 336 h
[11] = test system: Mycobacterium tuberculosis; assay: (§1) AntiMycobacterium tuberculosis activity day 10 in 7H9/2.5mM butyrate/pH6/0.1mM nitrite MIC90 (uM); conditions: 240 h
[12] = test system: Mycobacterium tuberculosis; assay: AntiMycobacterium tuberculosis activity 1-week 7H9/cholesterol/BSA/Tx MIC (uM); conditions: 168 h
[13] = test system: Mycobacterium tuberculosis; assay: AntiMycobacterium tuberculosis activity day 21 in 7H9/2.5mM butyrate/pH6/0.1mM nitrite MIC90 (uM); conditions: 504 h
[14] = test system: Mycobacterium tuberculosis; assay: AntiMycobacterium tuberculosis activity 1-week 7H9/ADC/Tw MIC (uM); conditions: 168 h
[15] = test system: Mycobacterium tuberculosis; assay: as §1; conditions: 240 h; remark: listed apart in the source
[16] = test system: HepG2; assay: HepG2 CC50 (uM) Cytotoxicity; conditions: Homo sapiens
[17] = test system: Mycobacterium tuberculosis; assay: AntiMycobacterium tuberculosis activity 2-week GAST/Fe MIC (uM); conditions: 336 h
[18] = test system: Mycobacterium tuberculosis; assay: AntiMycobacterium tuberculosis activity 2-week 7H9/ADC/Tw MIC (uM); conditions: 336 h

Row | SMILES | MIC90 [1] [µM] | MIC [2] [µM] | MIC [3] [µM] | MIC [4] [µM] | MIC [5] [µM] | MIC90 [6] [µM] | MIC [7] [µM] | MIC [8] [µM] | MIC [9] [µM] | MIC [10] [µM] | MIC90 [11] [µM] | MIC [12] [µM] | MIC90 [13] [µM] | MIC [14] [µM] | MIC90 [15] [µM] | CC50 [16] [µM] | MIC [17] [µM] | MIC [18] [µM]
1 | Cc1cnc(N2CCN[C@@H](Cc3ccccc3)C2)nc1Oc1ccc(-n2ccnc2)cc1 | 8.88 (≈ 3.79 µg/mL) | 50 (≈ 21.3 µg/mL) | 6.25 (≈ 2.67 µg/mL) | 12.5 (≈ 5.33 µg/mL) | 37 (≈ 15.8 µg/mL) | 27.7 (≈ 11.8 µg/mL) | > 50 | 19 (≈ 8.1 µg/mL) | 37 (≈ 15.8 µg/mL) | 19 (≈ 8.1 µg/mL) | > 50 | 12.5 (≈ 5.33 µg/mL) | > 50 | 25 (≈ 10.7 µg/mL) | > 50 | 14.1 | 9.4 (≈ 4.01 µg/mL) | 37 (≈ 15.8 µg/mL)
2 | O=C(Nc1cccnc1)c1c(O)c2cccc3c2n(c1=O)CC3 | 8.35 (≈ 2.57 µg/mL) | 12.5 (≈ 3.84 µg/mL) | 3.13 (≈ 0.962 µg/mL) | 12.5 (≈ 3.84 µg/mL) | 12.5 (≈ 3.84 µg/mL) | 7.75 (≈ 2.38 µg/mL) | > 50 | 6.25 (≈ 1.92 µg/mL) | 9.4 (≈ 2.89 µg/mL) | 25 (≈ 7.68 µg/mL) | 6.25 (≈ 1.92 µg/mL) | 12.5 (≈ 3.84 µg/mL) | 12.5 (≈ 3.84 µg/mL) | 25 (≈ 7.68 µg/mL) | > 50 | > 100 | 3.13 (≈ 0.962 µg/mL) | 25 (≈ 7.68 µg/mL)
3 | COc1ccc2nc(C)cc(OCC(=O)Nc3ccccc3OC)c2c1 | > 50 | 2.3 (≈ 0.81 µg/mL) | 0.05 (≈ 0.0176 µg/mL) | 1.56 (≈ 0.55 µg/mL) | 25 (≈ 8.81 µg/mL) | 1.61 (≈ 0.567 µg/mL) | > 50 | 25 (≈ 8.81 µg/mL) | 50 (≈ 17.6 µg/mL) | 2.3 (≈ 0.81 µg/mL) | > 50 | 12.5 (≈ 4.4 µg/mL) | > 50 | 37 (≈ 13 µg/mL) | > 50 | 57.4 | 0.1 (≈ 0.0352 µg/mL) | > 50
4 | O=C(C1CCN(c2cc(-n3cccc3)ncn2)CC1)N1CCc2ccccc2C1 | 7.41 (≈ 2.87 µg/mL) | 3.13 (≈ 1.21 µg/mL) | 0.39 (≈ 0.151 µg/mL) | 3.13 (≈ 1.21 µg/mL) | 3.13 (≈ 1.21 µg/mL) | 7.62 (≈ 2.95 µg/mL) | > 50 | 2.3 (≈ 0.891 µg/mL) | 2.3 (≈ 0.891 µg/mL) | 1.56 (≈ 0.604 µg/mL) | 12.5 (≈ 4.84 µg/mL) | 3.13 (≈ 1.21 µg/mL) | 50 (≈ 19.4 µg/mL) | 0.78 (≈ 0.302 µg/mL) | > 50 | > 100 | 0.6 (≈ 0.232 µg/mL) | 1.56 (≈ 0.604 µg/mL)
5 | CCC(C)NC(=O)c1ccc(NC(=O)C2(c3ccccc3)CCCC2)cc1 (stereo unspecified) | > 100 | > 50 | 12.5 (≈ 4.56 µg/mL) | > 50 | > 50 | > 100 | > 50 | > 50 | > 50 | > 50 | > 50 | > 50 | > 50 | > 50 | > 50 | > 100 | > 50 | > 50
6 | O=C(NC1=NCCS1)c1sc2cc(F)ccc2c1Cl | > 100 | 3.13 (≈ 0.985 µg/mL) | 0.6 (≈ 0.189 µg/mL) | 6.25 (≈ 1.97 µg/mL) | > 50 | 39.3 (≈ 12.4 µg/mL) | 12.5 (≈ 3.93 µg/mL) | > 50 | > 50 | 9.4 (≈ 2.96 µg/mL) | 3.12 (≈ 0.982 µg/mL) | 3.13 (≈ 0.985 µg/mL) | 12.5 (≈ 3.93 µg/mL) | > 50 | 3.12 (≈ 0.982 µg/mL) | > 100 | 1.2 (≈ 0.378 µg/mL) | > 50
7 | CCc1ccc([C@@H]2C[C@H](C(F)(F)F)n3ncc(C(=O)NCc4ccc(OC)cc4)c3N2)cc1 | 0.24 (≈ 0.11 µg/mL) | 0.39 (≈ 0.179 µg/mL) | 0.1 (≈ 0.0458 µg/mL) | 0.2 (≈ 0.0917 µg/mL) | 0.3 (≈ 0.138 µg/mL) | 1.13 (≈ 0.518 µg/mL) | > 50 | 0.6 (≈ 0.275 µg/mL) | 0.78 (≈ 0.358 µg/mL) | 1.56 (≈ 0.715 µg/mL) | 6.25 (≈ 2.87 µg/mL) | 0.2 (≈ 0.0917 µg/mL) | 12.5 (≈ 5.73 µg/mL) | 0.78 (≈ 0.358 µg/mL) | > 50 | 50.6 | 0.1 (≈ 0.0458 µg/mL) | 1.56 (≈ 0.715 µg/mL)
8 | Nc1c2c(nc3sc4c(c13)CCCC4)CCCC2 | 52 (≈ 13.4 µg/mL) | 25 (≈ 6.46 µg/mL) | 1.56 (≈ 0.403 µg/mL) | 12.5 (≈ 3.23 µg/mL) | 25 (≈ 6.46 µg/mL) | 94.6 (≈ 24.4 µg/mL) | > 50 | 19 (≈ 4.91 µg/mL) | 25 (≈ 6.46 µg/mL) | 12.5 (≈ 3.23 µg/mL) | 50 (≈ 12.9 µg/mL) | 12.5 (≈ 3.23 µg/mL) | 50 (≈ 12.9 µg/mL) | 25 (≈ 6.46 µg/mL) | > 50 | 34.9 | 2.3 (≈ 0.594 µg/mL) | 37 (≈ 9.56 µg/mL)
9 | Cc1nn(Cc2ccccc2)c(Cl)c1C(=O)NC1CCCCCC1 | > 100 | 2.3 (≈ 0.796 µg/mL) | 0.39 (≈ 0.135 µg/mL) | 4.7 (≈ 1.63 µg/mL) | 6.25 (≈ 2.16 µg/mL) | 5.96 (≈ 2.06 µg/mL) | 25 (≈ 8.65 µg/mL) | 37 (≈ 12.8 µg/mL) | > 50 | 6.25 (≈ 2.16 µg/mL) | 3.12 (≈ 1.08 µg/mL) | 1.56 (≈ 0.54 µg/mL) | 25 (≈ 8.65 µg/mL) | 19 (≈ 6.57 µg/mL) | 3.12 (≈ 1.08 µg/mL) | > 100 | 0.39 (≈ 0.135 µg/mL) | 50 (≈ 17.3 µg/mL)
10 | c1ccc(C[C@@H]2CN(c3nccc(Oc4ccc(-n5ccnc5)cc4)n3)CCN2)cc1 | 16.5 (≈ 6.82 µg/mL) | 12.5 (≈ 5.16 µg/mL) | 37 (≈ 15.3 µg/mL) | 25 (≈ 10.3 µg/mL) | 37 (≈ 15.3 µg/mL) | 38.1 (≈ 15.7 µg/mL) | 50 (≈ 20.6 µg/mL) | 37 (≈ 15.3 µg/mL) | 50 (≈ 20.6 µg/mL) | 19 (≈ 7.84 µg/mL) | 25 (≈ 10.3 µg/mL) | 9.4 (≈ 3.88 µg/mL) | 25 (≈ 10.3 µg/mL) | 50 (≈ 20.6 µg/mL) | 50 (≈ 20.6 µg/mL) | 29 | 37 (≈ 15.3 µg/mL) | 50 (≈ 20.6 µg/mL)
11 | O=C(c1cc2ccccc2o1)N1CCN(Cc2ccc3c(c2)OCO3)CC1 | > 100 | 6.25 (≈ 2.28 µg/mL) | 0.1 (≈ 0.0364 µg/mL) | 19 (≈ 6.92 µg/mL) | 50 (≈ 18.2 µg/mL) | 16.6 (≈ 6.07 µg/mL) | > 50 | > 50 | > 50 | 12.5 (≈ 4.56 µg/mL) | 50 (≈ 18.2 µg/mL) | 37 (≈ 13.5 µg/mL) | > 50 | > 50 | > 50 | > 100 | 0.2 (≈ 0.0729 µg/mL) | > 50
12 | O=C(CCC1CCCCC1)Nc1cccc(-c2nnc(-c3ccco3)o2)c1 | 5.42 (≈ 1.98 µg/mL) | 3.13 (≈ 1.14 µg/mL) | 1.2 (≈ 0.439 µg/mL) | 2.3 (≈ 0.84 µg/mL) | 3.13 (≈ 1.14 µg/mL) | 13.7 (≈ 4.99 µg/mL) | 1.5 (≈ 0.548 µg/mL) | 2.3 (≈ 0.84 µg/mL) | 3.13 (≈ 1.14 µg/mL) | 2.3 (≈ 0.84 µg/mL) | 1.5 (≈ 0.548 µg/mL) | 1.56 (≈ 0.57 µg/mL) | 1.5 (≈ 0.548 µg/mL) | 1.2 (≈ 0.439 µg/mL) | 1.5 (≈ 0.548 µg/mL) | > 100 | 1.2 (≈ 0.439 µg/mL) | 2.3 (≈ 0.84 µg/mL)
